Measured values taken from patent US10829427B2, “Naphthoquinones, pro-drugs, and methods of use thereof” (The Board of Regents of the University of Texas System, priority 2015, dated 2020).
Like-named read-outs stand apart in the source and are kept apart here.

How the values were obtained:
Mia PaCa-2 cells = assay: ATP assay (ATP depletion / cell viability) in Mia PaCa-2 cells; assay type: cell-based, human
Experimental: (§1) In vitro anti-cancer activity of the compound were performed using ATP Assay Kit (Abcam, ab83355) to initially screen, and further performed using 7-day DNA assay.
(§2) Cell culture: endogenous NQO1 overexpressing human MIA PaCa-2 pancreactic and A549 NSCLC cancer cells were obtained (Bey, et al., 2007; Li, et al., 2011). Cancer cells were grown in DMEM with 5% FBS and Mycoplasma free, and cultured at 37° C. in a 5% CO2 95% air humidified atmosphere.
ATP assay: Cells were seeded into each well of a 96-well plate (15000 cells/well) 18 hours ahead of experiment. After aspiration of the media from each well, 100 μl drug-contained media was added instead, and further incubated for 2 hours. After incubation, 100 μl ATP assay kit mixture was added into every well. Following further shaking for 10 minutes with light proof, the data were collected by reading luminescence integrate 1 second per well.

H596 = assay: Relative survival DNA assay, H596 (low NQO1 expression); assay type: cell-based
Experimental: (§3) Relative Survival Assays. Relative survival was assessed by DNA content and colony forming assays as described (Dong, et al., 2010). Briefly, for DNA content, cells were seeded at 1×10^4 per well in 48-well plates and allowed to attach overnight. Cells were then mock treated or treated with various doses of naphthaquinones (for 2 hours) in the presence or absence of dicoumarol as indicated. Drug-free medium was then added and cells were allowed to grow for 5 to 7 days until control cells reached ˜100% confluence. DNA content was then determined by Hoechst 33258 staining and fluorescence detection using a plate reader (Perkin-Elmer).

orthotopic A549 model = assay: In vivo anti-tumor efficacy, NOD-SCID mice bearing orthotopic A549 model
Experimental: Formulation. β-lap-HPβCD formulation was prepared according to our previous report.^14 NQ-059 and HPβCD (1:45, w/w) were dissolved in EtOH, and then concentrated in vacuo to form a thin film or a sponge-like film. PBS was added, and a clear solution was formed with shaking. Immediately filtration through a Ø 0.45 µm filter (Whatman), a stable solution was afforded, whose concentration was quantified by UV-vis at 256 nm.
(§4) Survival and Antitumor Efficacies. 6- to 8-week-old NOD-SCID female mice were tail-vein administrated with luciferase gene-transfected A549 cells (1.0×106), and randomized into groups (n=7-13/group), monitored for tumor formation in the lungs using bioluminescence (BLI) following treatment with vehicle, β-lap-HPβCD, or NQ-059-HPβCD. An average of 1.0×10^7 total photons was used before any therapies were given as described (Huang, et al., 2012). Animals were treated with vehicle, β-lap-HPβCD (20 mg/kg), or NQ-059-HPβCD (15 and 12 mg/kg) via tail vein and repeated five times every 3 days. Tumor-bearing mice were imaged using BLI to estimate relative tumor volumes as described (Ma, et al., 2015) using D-luciferin (Promega, 2.5 mg, subcutaneously injected). Relative tumor volume estimates were derived from BLI images of mice captured using a Xenogen Vivovision IVIS Lumina Imager (60 s exposure time). Animals were monitored daily for survival and morbidity. Mortality was recorded over times as a result of cancer-related deaths or drug-related toxicities (≥20% body weight loss relative to the start of therapy). Athymic Nu/Nu nude female mice (18-20 grams) were commercially obtained (Harlan). Human xenografts were generated by injecting 2×10^6 MiaPaca-2 cells subcutaneously in PBS/Matrigel into 6-week-old mice. Tumors were measured at indicated times with digital calipers (Fisher Scientific), and tumor volumes calculated (length×width^2×0.5). Treatments were initiated when subcutaneous tumors reached an average size of >100 mm (Cao, et al., 2003).

A549 cells = assay: Cell viability in A549 cells (7-day DNA assay); assay type: cell-based, human; details: relative to β-lapachone
Experimental: as §1, §2
DNA assay: Cells were seeded into each well of a 48-well plate (10000 cells/well) 24 hours ahead of experiment. After aspiration of the media from each well, 500 μl drug-contained media was added instead, and further incubated for 2 hours. Drugs were then removed, control growth medium was added, and cells were allowed to grow for an additional 7 days. Drugs were added to medium at a 1:1000 dilution immediately before administration to cells. DNA content (a measure of cell growth) was determined by fluoresence of the DNA dye Hoescht 33258 (Sigma), and read in a Cytofluor fluoresence plate reader. Data were expressed as relative growth with 6 repetitions.

A549 = assay: Relative survival DNA assay, A549, with or without dicoumarol; assay type: cell-based, human; details: for IC50: Homo sapiens, read-out: Inhibition of cell survival of DNA assay IC50
Experimental: (§5) Cell Lines and Culture. Endogenous NQO1 overexpressing human MiaPaca-2 (pancreatic carcinoma), A549 (None-small cell lung carcinoma), and MCF-7 (breast adenocarcinoma) were obtained (Bey, et al., 2007; Li, et al., 2011). All cell lines were grown in DMEM (Life Technologies) containing 5%-10% FBS (Fisher Scientific) in a 5% CO2 and 95% air incubator at 37° C.
as §3

blood = assay: Hemolysis assay; details: formulated with cyclodextran 1:30; relative to a blank cyclodextran or a DMSO vehicle, FIG. 9
Excerpt: Hemolysis assay. Hemolysis was quantified and modified according to method previously described (Blanco, et al., 2010). Briefly, after treatment with the blood, the plasma was separated and tested with UV-Vis at 576 nm, and hemolysis was quantified comparing treatment group and control group.

[1] = tested on: subcutaneous MiaPaca-2 model; assay: In vivo anti-tumor efficacy, nude mice bearing subcutaneous MiaPaca-2 model; set-up: species or system Athymic Nu/Nu nude female mice; details: subcutaneous MiaPaca-2 tumor model, FIG. 8
Experimental: as §4, with “Human xenografts were generated by injecting 2×10^6 MiaPaca-2 cells subcutaneously in PBS/Matrigel into 6-week-old mice.” left out, “Treatments were initiated when subcutaneous tumors reached an average size of >100 mm (Cao, et al., 2003).” left out

red blood cells = assay: Methemoglobinemia assay; details: formulated with cyclodextran 1:30; relative to a blank cyclodextran or a DMSO vehicle, FIG. 10
Experimental: Methemoglobinemia assay. Collected red blood cells were suspended in 96 well plates or single wells, then were treated with drug for certain time at 37° C. Immediately after the treatment completed, the cells were sit in ice-bath and lysed with 5% Triton X-100. The clear solution afforded were tested with UV-vis at 630 nm, and then were treated with […] K3FeCN6 for 1 min. The yellow solution afforded was tested again at 630 nm.

MCF-7 = assay: Relative survival DNA assay, MCF-7, with or without dicoumarol; assay type: cell-based, human; details: for IC50: Homo sapiens, read-out: Inhibition of cell survival of DNA assay IC50
Experimental: as §5, §3

MiaPaca 2 = assay: Relative survival DNA assay, MiaPaca 2, with or without dicoumarol; assay type: cell-based, human; details: for IC50: Homo sapiens, read-out: Inhibition of cell survival of DNA assay IC50
Experimental: as §5, §3

## CC(=O)Nc1cccc2c1C(=O)C(=O)C=C2OC(C)C [Compound 24, N-(5-isopropoxy-7,8-dioxo-7,8-dihydronaphthalen-1-yl)acetamide]
Mia PaCa-2 cells; ATP assay, MiaPac-2, Vehicle
  Fold (IC50 β-lap/IC50 NQ-059): 2.9
Mia PaCa-2 cells; Homo sapiens, MIA PaCa-2, MiaPac-2, Vehicle, read-out: Inhibition of cell viability of ATP assay IC50
  IC50: 970 nM
Mia PaCa-2 cells; Relative activity compare with β-lapachone in ATP depletion of Mia PaCa-2 cells
  IC50/IC50 (β-lapachone/Compoud): >3
H596; H596, FIG. 4J
  DNA amount in survival assay: lowest amount of DNA at the lowest concentration
H596; Homo sapiens, NCI-H596, H596 (low NQO1 expression), Vehicle, read-out: Inhibition of cell survival of DNA assay IC50
  IC50: > 10000 nM
Orthotopic A549 model; after 74 days, 12 mg/kg
  Tumor growth via bioluminescence imaging: some growth
Orthotopic A549 model; after day 44, 12 mg/kg
  Tumor growth via bioluminescence imaging: Neither 12 mg/kg or 15 mg/kg NQ-059 showed any tumor growth
Orthotopic A549 model; after day 44, 15 mg/kg
  Tumor growth via bioluminescence imaging: Neither 12 mg/kg or 15 mg/kg NQ-059 showed any tumor growth
Orthotopic A549 model; orthotopic A549, FIG. 7B
  Tumor volume relative to vehicle: significantly improved over the vehicle
Orthotopic A549 model; orthotopic A549, FIG. 7C
  Survival relative to vehicle: significantly improved over the vehicle
A549 cells
  IC50/IC50 (β-lapachone/Compoud): >3
A549; A549, FIG. 5B
  Activity relative to β-lapachone on the same plate: increased activity
A549; A549, FIGS. 4G-4I
  DNA amount in survival assay relative to β-lapachone: decreased DNA amounts at lower concentrations relative to β-lapachone
A549; DNA assay, A549, Vehicle
  Fold (IC50 β-lap/IC50 NQ-059): 3.9
A549; A549, A549, Dic (dicoumarol, NQO1 inhibitor)
  IC50: > 10000 nM
A549; A549, A549, Vehicle
  IC50: 1250 nM
blood
  Hemolysis: reduced toxicity
[1]
  Tumor volume relative to the vehicle: statistically significant improvement
Red blood cells
  Methemoglobinemia: reduced toxicity
MCF-7; DNA assay, MCF-7, Vehicle
  Fold (IC50 β-lap/IC50 NQ-059): 2.2
MCF-7; MCF7, MCF-7, Dic (dicoumarol, NQO1 inhibitor)
  IC50: > 10000 nM
MCF-7; MCF7, MCF-7, Vehicle
  IC50: 950 nM
MCF-7; MCF-7, FIGS. 4D-4F
  DNA amount in survival assay relative to β-lapachone: decreased DNA amounts at lower concentrations relative to β-lapachone
MiaPaca 2; DNA assay, MiaPaca 2, Vehicle
  Fold (IC50 β-lap/IC50 NQ-059): 4.9
MiaPaca 2; MIA PaCa-2, MiaPaca 2, Dic (dicoumarol, NQO1 inhibitor)
  IC50: > 10000 nM
MiaPaca 2; MIA PaCa-2, MiaPaca 2, Vehicle
  IC50: 880 nM
MiaPaca 2; MiaPac2, FIG. 5A
  Activity relative to β-lapachone on the same plate: increased activity
MiaPaca 2; MiaPaca 2, FIGS. 4A-4C
  DNA amount in survival assay relative to β-lapachone: decreased DNA amounts at lower concentrations relative to β-lapachone
